Values after ≈ are worked out from the molar mass of the structure shown. Read-outs that look alike come from different tables or passages of the source.
Key:
[1] = traditional oral formulation; cited from earlier work
[2] = test system: systolic and diastolic blood pressure; assay: animal or person
Description: Mean baseline ABPM data for the three treatment groups were compared with mean data obtained on Day 26 (last day of treatment) and on Days 27 and 28. A more detailed PK/PD analysis was conducted by using the individual patient ABPM data to compare the blood pressure profile at Baseline and on Day 26 of treatment. The daytime (0- to 12-hour) intervals were used in the analysis, since pharmacokinetic data were collected on Day 25, over the daytime 12-hour dosing interval at steady state. In order to investigate the maintenance of effect at the tail end of the inter-dosing interval, differences between the SBP, DBP, and HR values at Baseline and the last two hours in the inter-dosing interval (Hours 11 and 12) on Day 26 were calculated for each patient. Paired t-tests were performed to test the significance of these differences between Baseline and the last two measuring times. The approach taken to quantify the effects of clonidine on blood pressure was to calculate the difference between the areas under the BP vs. time curves (AUCBP) at Baseline and on Day 26. These values were used to relate the pharmacodynamic effect to dose, as well as to conduct the PK/PD analyses.
Pharmacokinetic-pharmacodynamic modeling was conducted using the blood pressure response data and the Cmax, Cmin and AUCτ values at Day 25 of dosing. […] The data in Table 8 summarize the PK/PD parameters from the sigmoidal Emax model.

[3] = sigmoidal Emax model, Day 25 exposure

Clc1cccc(Cl)c1NC1=NCCN1 [clonidine, 2,6-dichloro-N-2-imidazolidinylidene benzeneamine]
biological half-life [1]: four to six | EC50 ([2]; Homo sapiens, 600 h, read-out: EC50, Diastolic BP vs Cmax): 0.431 ng/mL (≈ 1.87 nM) | EC50 ([2]; Homo sapiens, 600 h, read-out: EC50, Diastolic BP vs Cmin): 0.341 ng/mL (≈ 1.48 nM) | EC50 ([2]; Homo sapiens, 600 h, read-out: EC50, Systolic BP vs Cmax): 0.458 ng/mL (≈ 1.99 nM) | EC50 ([2]; Homo sapiens, 600 h, read-out: EC50, Systolic BP vs Cmin): 0.359 ng/mL (≈ 1.56 nM) | EC90 ([2]; Homo sapiens, 600 h, read-out: EC90, Diastolic BP vs AUCτ): 5.92 ng/mL (≈ 25.7 nM) | Emax (ΔBP), Diastolic BP vs AUCτ [2, 3]: 16.8 | Emax (ΔBP), Diastolic BP vs Cmax [2, 3]: 16.7 | Emax (ΔBP), Diastolic BP vs Cmin [2, 3]: 16.8 | Emax (ΔBP), Systolic BP vs AUCτ [2, 3]: 24.3 | Emax (ΔBP), Systolic BP vs Cmax [2, 3]: 24.3 | Emax (ΔBP), Systolic BP vs Cmin [2, 3]: 24.4

Reference: patent US20100172991A1, “Extended Release Formulation and Methods of Treating Adrenergic Dysregulation” (priority 2007, published 2010)
